How the values were obtained:
Type in all cases: cell-based
[1] = test system: Chrysosporium keratinophilum; experiment: Agar plate disc-diffusion, antifungal inhibition zone; details: Sabouraud's dextrose agar, 37° C., 72 h, DMSO control zone subtracted
Experimental: (§1) The agar plate disc-diffusion method was applied. […] The discs were then placed onto the surface of agar plates (nutrient agar for bacteria and Sabouraud's dextrose agar for fungi) seeded with the test organism. Each plate contained 15 mL of the agar medium, previously seeded with 0.2 mL of the broth culture of each organism pregrown for 18 h. The plates were incubated at 37° C. for 48 h, and 72 h for fungi. The inhibition zones was measured in mm. Discs impregnated with DMSO were used as a control, and its inhibition zone was subtracted from the tested compound actual inhibition zone.

Aspergillus flavus = experiment: as above; details: Sabouraud's dextrose agar, 37° C., 72 h, DMSO control zone subtracted
Experimental: as §1

Bacillus cereus = experiment: Agar plate disc-diffusion, antibacterial inhibition zone; details: nutrient agar, 37° C., 48 h, DMSO control zone subtracted
Experimental: as §1

Pseudomonas aeruginosa = experiment: as above; details: nutrient agar, 37° C., 48 h, DMSO control zone subtracted
Experimental: as §1

Escherichia coli = experiment: as above; details: nutrient agar, 37° C., 48 h, DMSO control zone subtracted
Experimental: as §1

Staphylococcus aureus = experiment: as above; details: nutrient agar, 37° C., 48 h, DMSO control zone subtracted
Experimental: as §1

[2] = A = concentration of comp. = 10,000 μL
[3] = B = concentration of comp. = 30,000 μL
[4] = C = concentration of comp. = 50,000 μL

O=C(O)CSc1nnc(-c2cccc(F)c2)n1-c1ccccc1 [III, 2-(5-(3-fluorophenyl)-4-phenyl-4H-1,2,4-triazol-3-ylthio)acetic acid]
inhibition zone, Chrysosporium keratinophilum, A [1, 2]: 24 mm
inhibition zone, Chrysosporium keratinophilum, B [1, 3]: 27 mm
inhibition zone, Chrysosporium keratinophilum, C [1, 4]: 44 mm
inhibition zone, Aspergillus flavus, A (Aspergillus flavus; [2]): 20 mm
inhibition zone, Aspergillus flavus, B (Aspergillus flavus; [3]): 27 mm
inhibition zone, Aspergillus flavus, C (Aspergillus flavus; [4]): 36 mm
inhibition zone, Bacillus Cereus, A (Bacillus cereus; [2]): 23 mm
inhibition zone, Bacillus Cereus, B (Bacillus cereus; [3]): 27 mm
inhibition zone, Bacillus Cereus, C (Bacillus cereus; [4]): 40 mm
inhibition zone, Pseudomonas aeruginosa, A (Pseudomonas aeruginosa; [2]): 25 mm
inhibition zone, Pseudomonas aeruginosa, B (Pseudomonas aeruginosa; [3]): 27 mm
inhibition zone, Pseudomonas aeruginosa, C (Pseudomonas aeruginosa; [4]): 46 mm
inhibition zone, Escherichia coli, A (Escherichia coli; A =): 22 mm
inhibition zone, Escherichia coli, B (Escherichia coli; [3]): 30 mm
inhibition zone, Escherichia coli, C (Escherichia coli; [4]): 49 mm
inhibition zone, Staphylococcus aureus, A (Staphylococcus aureus; [2]): 15 mm
inhibition zone, Staphylococcus aureus, B (Staphylococcus aureus; [3]): 20 mm
inhibition zone, Staphylococcus aureus, C (Staphylococcus aureus; [4]): 24 mm
